# From the supplement of paper PMC10307832
# Experiments:
# Test in all cases: relative viability (nuclei count vs DMSO), 5 days (fraction); higher = more cells survive
# Metformin = compound: CN(C)C(=N)NC(=N)N [Metformin]
# In short: (§1)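 Lung cancer cell lines in 1536-well plates were exposed by pinning to five library-drug doses (not always all listed) √10 apart, following an overnight hold at 37 °C. MetaXpress counted Hoechst-stained nuclei from 4× images taken after 5 days without medium change. Viability is the median ratio of treated-well to vehicle-well nuclei across plates. Plates required control CV below 25% and at least one doubling.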
# Apatinib = compound: N#CC1(c2ccc(NC(=O)c3cccnc3NCc3ccncc3)cc2)CCCC1 [Apatinib]
# In short: as §1
# Apatinib + Pemetrexed = compound: N#CC1(c2ccc(NC(=O)c3cccnc3NCc3ccncc3)cc2)CCCC1 [Apatinib] + Nc1nc2[nH]cc(CCc3ccc(C(=O)N[C@@H](CCC(=O)O)C(=O)O)cc3)c2c(=O)[nH]1 [Pemetrexed] (partner 0.2 µM)
# In short: (§2)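 The day after seeding in 1536-well plates, lung cancer cell lines were treated by pin tool with a single drug, or with a fixed anchor-drug dose together with five library-drug doses (not always all listed) in √10 steps. After 5 days, a combined fix-and-stain solution (final 0.05% Triton X-100, 1% formaldehyde, 1 ug/ml Hoechst) was added. Nuclei counted on 4× images gave relative viability as treated counts over vehicle counts, reported as the median of duplicate plates.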
# Metformin + OSI-027 = compound: CN(C)C(=N)NC(=N)N [Metformin] + COc1cccc2cc(-c3nc([C@H]4CC[C@H](C(=O)O)CC4)n4ncnc(N)c34)[nH]c12 [OSI-027] (partner 0.5 µM)
# In short: as §2
Cell Line,relative viability (Metformin; 10 µM),relative viability (Metformin; 31.62 µM),relative viability (Metformin; 100 µM),relative viability (Metformin; 316.23 µM),relative viability (Metformin; 1000 µM),relative viability (Apatinib; 0.08 µM),relative viability (Apatinib; 0.253 µM),relative viability (Apatinib; 0.8 µM),relative viability (Apatinib; 2.53 µM),relative viability (Apatinib; 8 µM),relative viability (Apatinib + Pemetrexed; first compound 0.08 µM),relative viability (Apatinib + Pemetrexed; first compound 0.253 µM),relative viability (Apatinib + Pemetrexed; first compound 0.8 µM),relative viability (Apatinib + Pemetrexed; first compound 2.53 µM),relative viability (Apatinib + Pemetrexed; first compound 8 µM),relative viability (Metformin + OSI-027; first compound 10 µM),relative viability (Metformin + OSI-027; first compound 31.62 µM),relative viability (Metformin + OSI-027; first compound 100 µM),relative viability (Metformin + OSI-027; first compound 316.23 µM),relative viability (Metformin + OSI-027; first compound 1000 µM)
PC-14,1.01,1.09,0.997,0.971,0.944,1.03,1.05,0.829,0.968,0.956,0.142,0.133,0.124,0.0984,0.0405,0.648,0.929,0.657,0.607,0.574
HCC-78,0.857,1.03,1.27,0.968,1.14,0.967,0.847,1.01,0.803,0.858,0.871,0.934,0.854,0.588,0.909,0.466,0.49,0.362,0.426,0.422
NCI-H322M,0.974,0.922,0.939,0.951,0.855,0.964,0.861,0.894,0.975,1.07,0.605,0.633,0.623,0.593,0.54,0.54,0.597,0.604,0.457,0.46
NCI-H2023,0.782,1.13,0.921,0.853,0.769,1.01,0.94,0.974,0.881,0.883,0.212,0.278,0.2,0.191,0.204,0.421,0.558,0.379,0.397,0.378
NCI-H1651,1.08,1.17,1.12,1.11,1.11,0.988,0.984,0.986,0.939,0.871,0.552,0.555,0.556,0.531,0.483,0.904,1.02,1.03,0.954,1.1
HCC-15,–,1.08,1,0.926,1.05,1.1,0.978,0.971,0.909,0.841,0.245,0.225,0.217,0.192,0.167,–,0.812,0.655,0.586,0.678
NCI-H3122,0.817,0.939,0.891,0.819,0.872,1,0.988,0.98,0.969,1.03,0.212,0.192,0.199,0.202,0.188,0.672,0.851,0.574,0.419,0.339
LOU-NH91,0.998,0.865,0.973,0.997,0.946,0.94,0.922,0.871,0.89,0.898,0.418,0.396,0.424,0.336,0.303,0.711,0.71,0.644,0.775,0.767
LXF-289,0.872,0.927,0.95,0.946,0.99,0.989,0.976,0.981,0.943,0.951,0.916,0.908,0.818,0.692,0.886,0.764,0.737,0.738,0.721,0.735
NCI-H650,1.02,1.1,0.816,0.953,1.07,0.979,0.927,1,0.745,0.763,1.02,0.924,0.89,0.799,0.597,0.517,0.549,0.535,0.584,0.607
NCI-H1975,1.06,1.16,1.09,1.12,1.21,0.97,0.981,0.91,0.844,0.943,0.296,0.299,0.271,0.282,0.203,0.96,1.08,0.748,0.891,0.949
ChaGo-K-1,0.951,1.11,1.05,0.896,0.987,1.01,1.09,0.932,0.938,0.989,0.27,0.249,0.263,0.24,0.245,0.595,0.599,0.6,0.543,0.597
COR-L 105,1.02,1.04,1.16,0.994,0.964,0.976,1.04,0.85,0.814,0.855,1.27,1.21,1.04,0.895,1.05,0.736,0.895,0.736,0.773,0.521
A-427,1.05,1.02,0.985,1.01,1.05,1.09,0.967,0.965,0.926,0.906,0.993,0.903,0.974,0.896,0.932,0.45,0.493,0.44,0.458,0.492
NCI-H2087,0.79,0.965,0.944,0.813,1.01,1.05,1.03,1.22,0.788,0.814,0.657,0.682,0.65,0.619,0.758,–,0.753,0.73,0.536,0.482
NCI-H358,0.939,1.09,1.03,0.98,1.09,0.987,1.03,0.962,0.961,0.877,0.173,0.165,0.233,0.163,0.128,0.737,0.879,0.801,0.716,0.749
NCI-H647,0.978,1.05,1.05,0.813,0.939,1.05,1.07,0.993,0.837,0.852,0.176,0.172,0.165,0.139,0.127,0.721,0.853,0.538,0.485,0.924
NCI-H1793,0.943,1.01,0.993,0.977,1.25,1.02,1.01,0.857,0.772,0.749,1.1,0.932,0.871,0.726,0.633,0.395,–,0.315,0.238,0.253

Cell Line,relative viability (Metformin; 10 µM),relative viability (Metformin; 31.62 µM),relative viability (Metformin; 100 µM),relative viability (Metformin; 316.23 µM),relative viability (Metformin; 1000 µM),relative viability (Apatinib; 0.08 µM),relative viability (Apatinib; 0.253 µM),relative viability (Apatinib; 0.8 µM),relative viability (Apatinib; 2.53 µM),relative viability (Apatinib; 8 µM),relative viability (Apatinib + Pemetrexed; first compound 0.08 µM),relative viability (Apatinib + Pemetrexed; first compound 0.253 µM),relative viability (Apatinib + Pemetrexed; first compound 0.8 µM),relative viability (Apatinib + Pemetrexed; first compound 2.53 µM),relative viability (Apatinib + Pemetrexed; first compound 8 µM),relative viability (Metformin + OSI-027; first compound 10 µM),relative viability (Metformin + OSI-027; first compound 31.62 µM),relative viability (Metformin + OSI-027; first compound 100 µM),relative viability (Metformin + OSI-027; first compound 316.23 µM),relative viability (Metformin + OSI-027; first compound 1000 µM)
NCI-H1437,1.09,1.16,1.01,1.04,1.08,0.949,0.995,0.996,0.83,0.799,0.328,0.293,0.306,0.29,0.256,1.21,1.23,1.06,1,1.04
SW 1573,1.13,1.1,1.01,0.843,0.864,1.08,1.12,0.941,0.839,0.872,0.87,0.854,0.806,0.708,0.394,0.68,0.756,0.611,0.4,0.419
SW 900,1.08,1.15,0.779,0.933,1.07,1,0.87,0.858,0.615,0.825,0.486,0.467,0.427,0.379,0.321,0.597,0.781,0.617,0.544,0.538
LCLC-103H,0.848,1.01,1.07,1.01,1.02,0.998,0.956,0.956,0.912,0.942,0.439,0.463,0.412,0.432,0.39,0.51,0.624,0.555,0.461,0.506
BEN,1.26,1.4,1.29,1.17,1.47,1,0.92,1.02,0.821,0.807,0.64,0.563,0.71,0.696,0.534,0.271,0.275,0.3,0.314,0.263
EKVX,0.756,0.95,1.07,0.922,1.03,0.869,0.904,0.984,0.873,0.877,0.434,0.357,0.379,0.342,0.346,0.623,0.77,0.645,–,0.681
NCI-H2347,0.918,1.05,0.969,0.944,1.1,1.03,0.964,1.03,0.858,0.933,0.477,0.404,0.449,0.409,0.409,0.416,0.486,–,0.466,0.415
H3255,0.839,1.09,0.967,0.909,0.841,0.979,0.935,0.964,0.859,0.916,0.521,0.545,0.537,0.518,0.533,0.477,0.654,0.623,0.457,0.611
LU99A,0.946,0.894,0.785,0.792,0.915,0.923,1.11,0.95,0.925,0.83,0.189,0.198,0.183,0.174,0.212,0.302,0.321,0.3,0.309,0.289
IA-LM,0.982,1.16,1.15,1.07,1.15,0.955,0.9,0.994,0.694,0.535,–,–,–,–,–,–,–,–,–,–
EBC-1,1.18,1.19,1.07,0.918,1.04,1,1.06,0.914,0.858,0.738,–,–,–,–,–,–,–,–,–,–
ABC-1,0.847,1.2,0.965,0.948,0.448,–,1.06,0.86,0.911,0.703,–,–,–,–,–,0.661,0.529,0.466,0.266,0.22
NCI-H1703,1.3,1.42,0.998,1.06,1.19,0.784,0.769,0.355,0.199,0.19,–,–,–,–,–,–,–,–,–,–
NCI-H1623,0.985,0.982,1.08,0.909,1.03,1,0.924,0.966,0.946,0.593,–,–,–,–,–,0.449,0.469,0.463,0.539,0.478
Calu-6,0.899,0.961,0.953,0.931,0.964,1.01,1.01,0.908,0.868,0.799,–,–,–,–,–,–,–,–,–,–
NCI-H1299,1.07,1.04,1.07,1.01,1.03,1.04,1,1,0.931,0.917,–,–,–,–,–,–,–,–,–,–
NCI-H727,1.04,1.06,1.13,0.688,1.16,1.08,0.879,0.937,0.77,0.843,–,–,–,–,–,0.543,0.726,0.736,0.545,0.48
A549,0.896,0.976,0.923,0.849,0.996,1.02,1.04,1.02,0.903,0.909,–,–,–,–,–,–,–,–,–,–
